{
  "source": "paper PMC9294993",
  "about": "(ACS chemical biology, 2022)",
  "biological_target": "KfoC (Escherichia coli, UniProt Q8L0V4)",
  "sequence (Q8L0V4 whole entry)": "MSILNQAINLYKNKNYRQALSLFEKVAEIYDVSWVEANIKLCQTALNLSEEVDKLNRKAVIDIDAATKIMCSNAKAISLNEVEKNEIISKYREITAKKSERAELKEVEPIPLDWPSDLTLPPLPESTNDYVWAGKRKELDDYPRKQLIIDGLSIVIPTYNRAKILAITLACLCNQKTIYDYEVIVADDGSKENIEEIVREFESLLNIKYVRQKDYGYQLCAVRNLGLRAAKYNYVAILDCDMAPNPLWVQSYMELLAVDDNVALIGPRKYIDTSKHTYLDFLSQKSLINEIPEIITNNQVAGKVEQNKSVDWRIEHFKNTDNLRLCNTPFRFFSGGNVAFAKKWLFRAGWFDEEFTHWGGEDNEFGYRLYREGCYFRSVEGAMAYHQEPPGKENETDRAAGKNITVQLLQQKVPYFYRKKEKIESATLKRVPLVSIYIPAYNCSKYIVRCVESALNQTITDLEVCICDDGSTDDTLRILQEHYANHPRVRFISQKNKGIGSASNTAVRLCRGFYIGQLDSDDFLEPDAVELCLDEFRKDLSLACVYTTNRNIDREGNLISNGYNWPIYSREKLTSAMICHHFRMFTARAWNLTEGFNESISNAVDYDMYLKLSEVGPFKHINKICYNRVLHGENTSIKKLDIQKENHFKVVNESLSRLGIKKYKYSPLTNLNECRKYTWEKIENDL",
  "test": "preparative synthesis, HPLC",
  "type": "biochemical",
  "details": "acceptor elongated to CS 7-mer",
  "data": [
    {"compound": "O=C(O)[C@H]1O[C@@H](Oc2ccc([N+](=O)[O-])cc2)[C@H](O)[C@@H](O)[C@@H]1O", "note": "[4-nitrophenyl-β-D-glucuronide]", "values": [
      {"measurement": "preparative synthesis, HPLC", "value": "GlcA-pNP was first elongated to heptasaccharide CS 7-mer by KfoC"}
    ]}
  ]
}
